Experimental data published in BigSolDB 2.1.

NC(=O)c1ncn([C@@H]2O[C@H](CO)[C@@H](O)[C@H]2O)n1
solubility (mole fraction)
Details | 278.15 K | 283.15 K | 288.15 K | 293.15 K | 298.15 K | 303.15 K | 308.15 K | 313.15 K | 318.15 K
in 1,4-dioxane | – | 7.06e-05 | 0.000101 | 0.000145 | 0.000203 | 0.000282 | 0.000387 | 0.000527 | 0.000712
in acetonitrile | 8.6e-06 | 1.33e-05 | 1.94e-05 | 2.77e-05 | 3.96e-05 | 5.64e-05 | 7.88e-05 | 0.00011 | 0.00015
in methanol | 0.000379 | 0.000517 | 0.000711 | 0.000952 | 0.00128 | 0.00171 | 0.00223 | 0.00293 | 0.00379
in n-propanol | 5.99e-05 | 8.69e-05 | 0.000122 | 0.000171 | 0.000242 | 0.000332 | 0.000455 | 0.000617 | 0.000829
in water | 0.0058 | 0.00775 | 0.0104 | 0.0135 | 0.0174 | 0.0219 | 0.0273 | 0.0335 | 0.0405
